Assay results: US8802597B2, “Herbicidal pyrimidines” (E I du Pont de Nemours and Company, priority 2003, dated 2014)
Where two headings read alike, the source gives them in different places.

Tests used:
Type in all cases: in vivo
[1] = system: wild oat (Avena fatua); assay: Test B postemergence; conditions: Avena fatua, post-emergence
How it was run: (§1)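 Greenhouse whole-plant test; surfactant-containing non-phytotoxic solvent formulation; pre- and postemergence applications made simultaneously; post plants 2–18 cm, 1- to 4-leaf; visual scoring at 13–15 days on 0–100 scale relative to controls.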

[2] = system: blackgrass (Alopecurus myosuroides); assay: Test B postemergence; conditions: Alopecurus myosuroides, post-emergence
How it was run: as §1

[3] = system: duck salad (Heteranthera limosa); assay: Test B flooded paddy test; conditions: Heteranthera limosa, Flood, 1000 g ai/ha; scale 0 to 100; read-out: Plant response rating, Ducksalad
How it was run: (§2)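 Visual injury scoring (0 = no effect, 100 = complete control) versus controls made 13 to 15 days after treatment in the greenhouse. Test species were grown in flooded paddy to the 2-leaf stage: rice, barnyardgrass, umbrella sedge, duck salad.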

[4] = system: umbrella sedge (Cyperus difformis); assay: Test B flooded paddy test; conditions: Cyperus difformis, Flood, 1000 g ai/ha; scale 0 to 100; read-out: Plant response rating, Sedge, Umbrella
How it was run: as §2

[5] = system: barnyardgrass (Echinochloa crus-galli); assay: Test B flooded paddy test; conditions: Echinochloa crus-galli, Flood, 1000 g ai/ha; scale 0 (no effect) to 100 (complete control); read-out: Plant response rating, Barnyardgrass
How it was run: as §2

[6] = system: rice (Oryza sativa); assay: Test B flooded paddy test; conditions: Oryza sativa, Flood, 1000 g ai/ha; scale 0 to 100; read-out: Plant response rating, Rice
How it was run: as §2

[7] = system: lambsquarters (Chenopodium album); assay: Test B pre/postemergence; conditions: Chenopodium album; for pest or weed control at 125 g/ha: 125 g ai/ha; for pest or weed control at 500 g/ha: 500 g ai/ha
How it was run: as §1

[8] = system: cocklebur (Xanthium strumarium); assay: Test B pre/postemergence; conditions: Xanthium strumarium; for pest or weed control at 125 g/ha: 125 g ai/ha; for pest or weed control at 500 g/ha: 500 g ai/ha
How it was run: as §1

[9] = system: Surinam grass (Brachiaria decumbens); assay: Test B pre/postemergence; conditions: Urochloa decumbens; for pest or weed control at 125 g/ha: 125 g ai/ha; for pest or weed control at 500 g/ha: 500 g ai/ha
How it was run: as §1

[10] = system: crabgrass (Digitaria sanguinalis); assay: Test B pre/postemergence; conditions: Digitaria sanguinalis; for pest or weed control at 125 g/ha: 125 g ai/ha; for pest or weed control at 500 g/ha: 500 g ai/ha
How it was run: as §1

[11] = system: giant foxtail (Setaria faberii); assay: Test B pre/postemergence; conditions: Setaria faberi; for pest or weed control at 125 g/ha: 125 g ai/ha; for pest or weed control at 500 g/ha: 500 g ai/ha
How it was run: as §1

[12] = system: corn (Zea mays); assay: Test B pre/postemergence; conditions: Zea mays
How it was run: as §1

[13] = system: wheat (Triticum aestivum); assay: Test B pre/postemergence; conditions: Triticum aestivum; for plant injury at 125 g/ha: 125 g ai/ha; for plant injury at 500 g/ha: 500 g ai/ha
How it was run: as §1

[14] = system: morningglory (Ipomoea coccinea); assay: Test B pre/postemergence; conditions: Ipomoea; for pest or weed control at 125 g/ha: 125 g ai/ha; for pest or weed control at 500 g/ha: 500 g ai/ha
How it was run: as §1

[15] = system: barnyardgrass (Echinochloa crus-galli); assay: Test B pre/postemergence; conditions: Echinochloa crus-galli; for pest or weed control at 125 g/ha: 125 g ai/ha; for pest or weed control at 500 g/ha: 500 g ai/ha
How it was run: as §1

[16] = system: pigweed (Amaranthus retroflexus); assay: Test B pre/postemergence; conditions: Amaranthus retroflexus; for pest or weed control at 125 g/ha: 125 g ai/ha; for pest or weed control at 500 g/ha: 500 g ai/ha
How it was run: as §1

[17] = system: velvetleaf (Abutilon theophrasti); assay: Test B pre/postemergence; conditions: Abutilon theophrasti; for pest or weed control at 125 g/ha: 125 g ai/ha; for pest or weed control at 500 g/ha: 500 g ai/ha
How it was run: as §1

Compound: COC(=O)c1nc(C2CC2)nc(N)c1I [Compound 7]
- pest or weed control at 125 g/ha ([1]; 125 g ai/ha, scale 0 to 100 (0 no effect, 100 complete control), read-out: Oat, Wild plant response rating): 40%
- pest or weed control at 500 g/ha ([1]; 500 g ai/ha, scale 0 to 100, read-out: Plant response rating, Oat, Wild): 70%
- pest or weed control at 125 g/ha ([2]; 125 g ai/ha, scale 0 to 100 (0 no effect, 100 complete control), read-out: Blackgrass plant response rating): 60%
- pest or weed control at 500 g/ha ([2]; 500 g ai/ha, scale 0 to 100, read-out: Plant response rating, Blackgrass): 80%
- pest or weed control at 1000 g/ha [3]: 0%
- pest or weed control at 1000 g/ha [4]: 0%
- pest or weed control at 1000 g/ha [5]: 20%
- plant injury at 1000 g/ha [6]: 0%
- pest or weed control at 125 g/ha ([7]; post-emergence, Postemergence, scale 0 to 100 (0 no effect, 100 complete control), read-out: Lambsquarters plant response rating): 80%
- pest or weed control at 500 g/ha ([7]; post-emergence, Postemergence, scale 0 to 100, read-out: Plant response rating, Lambsquarters): 100%
- pest or weed control at 125 g/ha ([7]; pre-emergence, Preemergence, scale 0 to 100 (0 no effect, 100 complete control), read-out: Plant response rating, Lambsquarters): 80%
- pest or weed control at 500 g/ha ([7]; pre-emergence, Preemergence, scale 0 to 100 (0 no effect, 100 complete control), read-out: Lambsquarters plant response rating): 90%
- pest or weed control at 125 g/ha ([8]; post-emergence, Postemergence, scale 0 to 100 (0 no effect, 100 complete control), read-out: Cocklebur plant response rating): 90%
- pest or weed control at 500 g/ha ([8]; post-emergence, Postemergence, scale 0 to 100, read-out: Plant response rating, Cocklebur): 100%
- pest or weed control at 125 g/ha ([8]; pre-emergence, Preemergence, scale 0 to 100 (0 no effect, 100 complete control), read-out: Plant response rating, Cocklebur): 70%
- pest or weed control at 500 g/ha ([8]; pre-emergence, Preemergence, scale 0 to 100 (0 no effect, 100 complete control), read-out: Cocklebur plant response rating): 80%
- pest or weed control at 125 g/ha ([9]; post-emergence, Postemergence, scale 0 to 100 (0 no effect, 100 complete control), read-out: Surinam Grass plant response rating): 0%
- pest or weed control at 500 g/ha ([9]; post-emergence, Postemergence, scale 0 to 100, read-out: Plant response rating, Surinam Grass): 20%
- pest or weed control at 125 g/ha ([9]; pre-emergence, Preemergence, scale 0 to 100 (0 no effect, 100 complete control), read-out: Plant response rating, Surinam Grass): 0%
- pest or weed control at 500 g/ha ([9]; pre-emergence, Preemergence, scale 0 to 100 (0 no effect, 100 complete control), read-out: Surinam Grass plant response rating): 0%
- pest or weed control at 125 g/ha ([10]; post-emergence, Postemergence, scale 0 to 100 (0 no effect, 100 complete control), read-out: Crabgrass plant response rating): 10%
- pest or weed control at 500 g/ha ([10]; post-emergence, Postemergence, scale 0 to 100, read-out: Plant response rating, Crabgrass): 30%
- pest or weed control at 125 g/ha ([10]; pre-emergence, Preemergence, scale 0 to 100 (0 no effect, 100 complete control), read-out: Plant response rating, Crabgrass): 0%
- pest or weed control at 500 g/ha ([10]; pre-emergence, Preemergence, scale 0 to 100 (0 no effect, 100 complete control), read-out: Crabgrass plant response rating): 30%
- pest or weed control at 125 g/ha ([11]; post-emergence, Postemergence, scale 0 to 100 (0 no effect, 100 complete control), read-out: Foxtail, Giant plant response rating): 20%
- pest or weed control at 500 g/ha ([11]; post-emergence, Postemergence, scale 0 to 100, read-out: Plant response rating, Foxtail, Giant): 40%
- pest or weed control at 125 g/ha ([11]; pre-emergence, Preemergence, scale 0 to 100 (0 no effect, 100 complete control), read-out: Plant response rating, Foxtail, Giant): 0%
- pest or weed control at 500 g/ha ([11]; pre-emergence, Preemergence, scale 0 to 100 (0 no effect, 100 complete control), read-out: Foxtail, Giant plant response rating): 0%
- plant injury at 125 g/ha ([12]; post-emergence, Postemergence, 125 g ai/ha, scale 0 to 100 (0 no effect, 100 complete control), read-out: Corn plant response rating): 0%
- Corn plant response rating (crop injury, 0 = no effect, 100 = complete kill) at 500 g/ha ([12]; post-emergence, Postemergence, 500 g ai/ha, scale 0 to 100): 30%
- Corn plant response rating (crop injury, 0 = no effect, 100 = complete kill) at 125 g/ha ([12]; pre-emergence, Preemergence, 125 g ai/ha, scale 0 to 100 (0 no effect, 100 complete control)): 0%
- plant injury at 500 g/ha ([12]; pre-emergence, Preemergence, 500 g ai/ha, scale 0 to 100 (0 no effect, 100 complete control), read-out: Corn plant response rating): 0%
- plant injury at 125 g/ha ([13]; post-emergence, Postemergence, scale 0 to 100 (0 no effect, 100 complete control), read-out: Wheat plant response rating): 50%
- plant injury at 500 g/ha ([13]; post-emergence, Postemergence, scale 0 to 100, read-out: Plant response rating, Wheat): 80%
- plant injury at 125 g/ha ([13]; pre-emergence, Preemergence, scale 0 to 100 (0 no effect, 100 complete control), read-out: Plant response rating, Wheat): 0%
- plant injury at 500 g/ha ([13]; pre-emergence, Preemergence, scale 0 to 100 (0 no effect, 100 complete control), read-out: Wheat plant response rating): 30%
- pest or weed control at 125 g/ha ([14]; post-emergence, Postemergence, scale 0 to 100 (0 no effect, 100 complete control), read-out: Morningglory plant response rating): 80%
- pest or weed control at 500 g/ha ([14]; post-emergence, Postemergence, scale 0 to 100, read-out: Plant response rating, Morningglory): 90%
- pest or weed control at 125 g/ha ([14]; pre-emergence, Preemergence, scale 0 to 100 (0 no effect, 100 complete control), read-out: Plant response rating, Morningglory): 70%
- pest or weed control at 500 g/ha ([14]; pre-emergence, Preemergence, scale 0 to 100 (0 no effect, 100 complete control), read-out: Morningglory plant response rating): 80%
- pest or weed control at 125 g/ha ([15]; post-emergence, Postemergence, scale 0 to 100 (0 no effect, 100 complete control), read-out: Barnyardgrass plant response rating): 0%
- pest or weed control at 500 g/ha ([15]; post-emergence, Postemergence, scale 0 to 100, read-out: Plant response rating, Barnyardgrass): 30%
- pest or weed control at 125 g/ha ([15]; pre-emergence, Preemergence, scale 0 to 100 (0 no effect, 100 complete control), read-out: Plant response rating, Barnyardgrass): 0%
- pest or weed control at 500 g/ha ([15]; pre-emergence, Preemergence, scale 0 to 100 (0 no effect, 100 complete control), read-out: Barnyardgrass plant response rating): 30%
- pest or weed control at 125 g/ha ([16]; post-emergence, Postemergence, scale 0 to 100 (0 no effect, 100 complete control), read-out: Pigweed plant response rating): 0%
- pest or weed control at 500 g/ha ([16]; post-emergence, Postemergence, scale 0 to 100, read-out: Plant response rating, Pigweed): 90%
- pest or weed control at 125 g/ha ([16]; pre-emergence, Preemergence, scale 0 to 100 (0 no effect, 100 complete control), read-out: Plant response rating, Pigweed): 90%
- pest or weed control at 500 g/ha ([16]; pre-emergence, Preemergence, scale 0 to 100 (0 no effect, 100 complete control), read-out: Pigweed plant response rating): 90%
- pest or weed control at 125 g/ha ([17]; post-emergence, Postemergence, scale 0 to 100 (0 no effect, 100 complete control), read-out: Velvetleaf plant response rating): 50%
- pest or weed control at 500 g/ha ([17]; post-emergence, Postemergence, scale 0 to 100, read-out: Plant response rating, Velvetleaf): 90%
- pest or weed control at 125 g/ha ([17]; pre-emergence, Preemergence, scale 0 to 100 (0 no effect, 100 complete control), read-out: Plant response rating, Velvetleaf): 50%
- pest or weed control at 500 g/ha ([17]; pre-emergence, Preemergence, scale 0 to 100 (0 no effect, 100 complete control), read-out: Velvetleaf plant response rating): 80%
